Test results reported in patent publication US7037936B2, “Compounds useful for the treatment of cancer, compositions thereof and methods therewith” (Signal Pharmaceuticals, LLC., priority 2002, dated 2006).
Counter-ions that a name gives are not always drawn.

Experiments:
Type in all cases: cell-based
DF15 (multiple myeloma) = assay: Induction of cell (programmed) death in DF15 cells; settings: DF15 (multiple myeloma) cell line
HL-60 (leukemia) = assay: Induction of cell (programmed) death in HL-60 cells; settings: HL-60 (leukemia) cell line
A172 (malignant glioma) = assay: Induction of cell (programmed) death in A172 cells; settings: A172 (malignant glioma) cell line
DU145 (prostate cancer) = assay: Induction of cell (programmed) death in DU145 cells; settings: DU145 (prostate cancer) cell line
A357 (lung cancer) = assay: Induction of cell (programmed) death in A357 cells; settings: A357 (lung cancer) cell line
MCF-7 (breast cancer) = assay: Induction of cell (programmed) death in MCF-7 cells; settings: MCF-7 (breast cancer) cell line
ANB6 (multiple myeloma) = assay: Induction of cell (programmed) death in ANB6 cells; settings: ANB6 (multiple myeloma) cell line
U266 (multiple myeloma) = assay: Induction of cell (programmed) death in U266 cells; settings: U266 (multiple myeloma) cell line
[1] = tested on: NCIH1703 (non-small cell lung adenocarcinoma); assay: Induction of cell (programmed) death in NCIH1703 cells; settings: NCIH1703 (non-small cell lung adenocarcinoma) cell line
[2] = tested on: MDA-MB-435 (breast cancer); assay: Induction of cell (programmed) death in MDA-MB-435 cells; settings: MDA-MB-435 (breast cancer) cell line
[3] = tested on: Hela (cervix adenocarcinoma); assay: Induction of cell (programmed) death in Hela cells; settings: Hela (cervix adenocarcinoma) cell line
[4] = tested on: MDA-MB-231 (breast cancer); assay: Induction of cell (programmed) death in MDA-MB-231 cells; settings: MDA-MB-231 (breast cancer) cell line
H929 (multiple myeloma) = assay: Induction of cell (programmed) death in H929 cells; settings: H929 (multiple myeloma) cell line
MM1s (multiple myeloma) = assay: Induction of cell (programmed) death in MM1s cells; settings: MM1s (multiple myeloma) cell line
[5] = tested on: MDA-435 human breast cancer cells; assay: In vitro cell cycle assay (G1 arrest), propidium iodide DNA content by flow cytometry; settings: MDA-435 cells synchronized by serum deprivation for 24 hours, released with 10% serum; vehicle 28%
Procedure: Tumor cells were synchronized by serum deprivation for 24 hours, then released by adding 10% serum to the cell culture with either the compound of EXAMPLE 1 ((4-{[3-(2,2-Dimethyl-tetrahydro-pyran-4-yl)-4-phenyl-butylamino]-methyl}-phenyl)-dimethyl-amine) (obtained from ChemBridge Corporation; single peak via HPLC: 20–100% gradient: acetonitrile/water/1% trifluoroacetic acid) or vehicle (dimethylsofloxide). Cells were harvested and stained in 0.04% digitonin working solution with […] propidium iodide. DNA content was analyzed by Flow Cytometry (Coulter). The population of cells in each phase was determined using Expo 32-ADC Software for Coulter EPICS® XL™ Cytometers, version 1.1 B (2001).

[6] = tested on: MDA-435 human breast cancer cells; assay: In vitro apoptosis assay, Annexin V-FITC and PI staining by flow cytometry; settings: MDA-435 cells
Procedure: MDA-435 human breast cancer cells were treated with either vehicle or varying doses of the compound of EXAMPLE 1. Cells were harvested and stained with Annexin V-FITC and PI by Flow Cytometry using ApoAlert Annexin V-FITC apoptosis kit (Clonetech, BD). The percentage of apoptotic cells were determined using EPICS® XL™ and XL-MCL, System II™ Software, version 1.0 (1996).

CN(C)c1ccc(CNCCC(Cc2ccccc2)C2CCOC(C)(C)C2)cc1 (centres unmarked) [EXAMPLE 1, (4-({[3-(2′,2′-dimethyltetrahydropyran-4′-yl)-4-phenylbutylamino]-methyl}-phenyl)-dimethylaminedihydrochloride]
induction of cell (programmed) death (DF15 (multiple myeloma)): induce cell (programmed) death
induction of cell (programmed) death (HL-60 (leukemia)): induce cell (programmed) death
induction of cell (programmed) death (A172 (malignant glioma)): induce cell (programmed) death
induction of cell (programmed) death (DU145 (prostate cancer)): induce cell (programmed) death
induction of cell (programmed) death (A357 (lung cancer)): induce cell (programmed) death
induction of cell (programmed) death (MCF-7 (breast cancer)): induce cell (programmed) death
induction of cell (programmed) death (ANB6 (multiple myeloma)): induce cell (programmed) death
induction of cell (programmed) death (U266 (multiple myeloma)): induce cell (programmed) death
induction of cell (programmed) death [1]: induce cell (programmed) death
induction of cell (programmed) death [2]: induce cell (programmed) death
induction of cell (programmed) death [3]: induce cell (programmed) death
induction of cell (programmed) death [4]: induce cell (programmed) death
induction of cell (programmed) death (H929 (multiple myeloma)): induce cell (programmed) death
induction of cell (programmed) death (MM1s (multiple myeloma)): induce cell (programmed) death
G0/G1 to S phase transition blockage [5]: 38%
cell population with increased intensity of Annexin V-FITC staining ([6]; varying doses, dose-dependent increase): up to 30%
PI staining of treated cells ([6]; PI stains cells in a late stage of apoptosis): increase in PI staining
